For experiment [1], the system named is HDAC2. The conditions noted are these: obtained by fitting Lechner et al. source data to a sigmoidal concentration–effect model; ref [21]; read-out: IC50 HDAC 2, Lechner et al.; cited from earlier work.
In experiment [2] the target is T1, HDAC8 (Homo sapiens, UniProt Q9BY41).
T1 sequence (Q9BY41 1-377): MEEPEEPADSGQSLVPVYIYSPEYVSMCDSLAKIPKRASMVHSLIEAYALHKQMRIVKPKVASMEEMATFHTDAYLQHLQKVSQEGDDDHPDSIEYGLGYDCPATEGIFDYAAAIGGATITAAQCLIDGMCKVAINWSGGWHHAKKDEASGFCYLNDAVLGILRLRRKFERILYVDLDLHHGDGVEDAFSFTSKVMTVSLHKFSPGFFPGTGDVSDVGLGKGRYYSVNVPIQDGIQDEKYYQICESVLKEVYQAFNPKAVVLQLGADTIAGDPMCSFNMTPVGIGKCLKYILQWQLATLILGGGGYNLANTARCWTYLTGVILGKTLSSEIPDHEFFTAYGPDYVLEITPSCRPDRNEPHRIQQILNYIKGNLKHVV
Nature of the experiment: Enzyme HDAC inhibition assay, HDAC8. The conditions noted are these: read-out: IC50 HDAC 8; IC50 ± SEM; three experiments in duplicates.
Text: (§2) All human recombinant enzymes were purchased from Reaction Biology Corp. (Malvern, PA, USA).

Experiment [3] has as its system class I/IIb HDAC activity in T47D cells. Nature of the experiment: cells. It counts as cell-based, human. Conditions: T47D cells, 48 h, substrate Boc-Lys-AC-AMC; IC50 ± SEM, one experiment in triplicates; read-out: IC50 Cellular HDAC Assay. The protocol:
The cellular HDAC assay was performed based on an assay published by Heltweg and Jung and Ciossek et al.. Breast cancer cell line T-47D (12,000 c/w) was seeded in 96-well tissue culture plates (Corning, Kaiserslautern, Germany) in a total volume of 90 µL of culture medium. After 24 h, cells were incubated 48 h with increasing concentrations of a-lipoic acid. The reaction was started by adding 10 µL of 3 mM Boc-Lys(Ac)-AMC (Bachem, Bubensdorf, Switzerland) and again incubated for 3 h under cell culture conditions. […]

For experiment [4], the system named is HDAC6. Conditions: obtained by fitting Lechner et al. source data to a sigmoidal concentration–effect model; ref [21]; read-out: IC50 HDAC 6, Lechner et al.; cited from earlier work.
The next experiment deals with T47D. Nature of the experiment: MTT cell viability assay, T47D. The format is cell-based, human. As to the method: (§1) MTT assays were performed as previously described. […] After incubation time, medium was replaced by MTT (solution of 5 mg/mL 3-(4,5-dimethylthiazol-2-yl)-2,5-diphenyl-tetrazoliumbromidin in phosphate buffered saline, Serva, Heidelberg, Germany).
A further experiment relates to MCF-7. Nature of the experiment: MTT cell viability assay, MCF-7. It counts as cell-based, human. As to the method: as §1
The target of experiment [5] is T2, HDAC6 (Homo sapiens, UniProt Q9UBN7).
T2 sequence (Q9UBN7 1-1215): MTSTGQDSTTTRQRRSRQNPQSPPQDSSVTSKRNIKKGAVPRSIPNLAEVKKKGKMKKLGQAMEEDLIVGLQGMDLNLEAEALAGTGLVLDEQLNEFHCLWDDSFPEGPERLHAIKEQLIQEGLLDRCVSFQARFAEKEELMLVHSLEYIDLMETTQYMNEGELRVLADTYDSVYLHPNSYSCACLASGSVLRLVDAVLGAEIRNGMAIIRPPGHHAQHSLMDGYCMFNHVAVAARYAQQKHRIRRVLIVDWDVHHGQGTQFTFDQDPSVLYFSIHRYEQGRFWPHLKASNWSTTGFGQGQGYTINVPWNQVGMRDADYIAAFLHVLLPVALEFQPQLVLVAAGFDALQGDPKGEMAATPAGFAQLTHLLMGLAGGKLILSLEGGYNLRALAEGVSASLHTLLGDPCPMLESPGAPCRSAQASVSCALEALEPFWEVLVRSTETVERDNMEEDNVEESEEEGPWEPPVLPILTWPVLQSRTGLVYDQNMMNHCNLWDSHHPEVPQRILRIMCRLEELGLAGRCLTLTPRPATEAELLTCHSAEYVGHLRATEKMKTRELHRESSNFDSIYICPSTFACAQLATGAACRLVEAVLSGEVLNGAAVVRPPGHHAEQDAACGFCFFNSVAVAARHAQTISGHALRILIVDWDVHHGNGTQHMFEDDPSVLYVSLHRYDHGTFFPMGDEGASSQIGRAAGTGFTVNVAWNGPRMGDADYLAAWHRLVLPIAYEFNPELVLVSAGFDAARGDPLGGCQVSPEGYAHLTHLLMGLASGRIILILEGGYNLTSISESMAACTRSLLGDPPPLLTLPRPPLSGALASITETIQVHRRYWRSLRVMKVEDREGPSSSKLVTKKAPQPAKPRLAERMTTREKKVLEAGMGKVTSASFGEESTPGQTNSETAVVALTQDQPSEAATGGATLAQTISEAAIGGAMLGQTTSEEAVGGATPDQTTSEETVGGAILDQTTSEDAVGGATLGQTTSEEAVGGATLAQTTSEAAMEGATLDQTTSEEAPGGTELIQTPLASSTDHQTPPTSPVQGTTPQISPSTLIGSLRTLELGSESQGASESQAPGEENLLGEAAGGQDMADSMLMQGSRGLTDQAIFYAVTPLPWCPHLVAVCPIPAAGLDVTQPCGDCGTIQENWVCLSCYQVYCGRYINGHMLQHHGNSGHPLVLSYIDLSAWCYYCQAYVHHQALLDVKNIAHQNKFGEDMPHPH
Nature of the experiment: Enzyme HDAC inhibition assay, HDAC6. The conditions noted are these: read-out: IC50 HDAC 6; IC50 ± SEM; three experiments in duplicates.
Text: as §2

The target in experiment [6] is HDAC2 (Homo sapiens, UniProt Q92769). Nature of the experiment: Enzyme HDAC inhibition assay, HDAC2. Conditions: read-out: IC50 HDAC 2; IC50 ± SEM; three experiments in duplicates.
Sequence of HDAC2 (Homo sapiens, UniProt Q92769) (Q92769 whole entry): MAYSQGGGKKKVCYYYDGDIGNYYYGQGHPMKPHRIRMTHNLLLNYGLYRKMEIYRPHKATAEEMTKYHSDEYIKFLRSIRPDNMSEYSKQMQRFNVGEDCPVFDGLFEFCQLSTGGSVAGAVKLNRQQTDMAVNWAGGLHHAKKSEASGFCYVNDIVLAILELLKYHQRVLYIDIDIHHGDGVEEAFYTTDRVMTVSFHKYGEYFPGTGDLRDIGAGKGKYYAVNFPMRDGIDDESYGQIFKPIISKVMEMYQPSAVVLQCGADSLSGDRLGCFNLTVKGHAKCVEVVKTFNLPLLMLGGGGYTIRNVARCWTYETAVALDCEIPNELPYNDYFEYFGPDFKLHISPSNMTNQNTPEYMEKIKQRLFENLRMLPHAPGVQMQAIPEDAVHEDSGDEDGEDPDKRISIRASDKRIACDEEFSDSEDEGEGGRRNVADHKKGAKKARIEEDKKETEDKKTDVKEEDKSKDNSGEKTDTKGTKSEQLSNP
Text: as §2
Experiment [7] concerns HDAC8. The conditions noted are these: obtained by fitting Lechner et al. source data to a sigmoidal concentration–effect model; ref [21]; read-out: IC50 HDAC 8, Lechner et al.; cited from earlier work.
Another experiment addresses T3, HDAC4 (Homo sapiens, UniProt P56524).
T3 construct: purchased Reaction Biology Corp. KDA-21-279
Nature of the experiment: Enzyme HDAC inhibition assay, HDAC4. The format is biochemical. The conditions noted are these: IC50 ± SEM; three experiments in duplicates; read-out: IC50 HDAC 4.

Where [8] appears, read: 120 h, IC50 ± SEM, read-out: IC50 T-47D, 120 h MTT assay.
Setting [9] is: 120 h, IC50 ± SEM, read-out: IC50 MCF-7, 120 h MTT assay.

Like-named read-outs stand apart in the source and are kept apart here.

T3 sequence (P56524 whole entry): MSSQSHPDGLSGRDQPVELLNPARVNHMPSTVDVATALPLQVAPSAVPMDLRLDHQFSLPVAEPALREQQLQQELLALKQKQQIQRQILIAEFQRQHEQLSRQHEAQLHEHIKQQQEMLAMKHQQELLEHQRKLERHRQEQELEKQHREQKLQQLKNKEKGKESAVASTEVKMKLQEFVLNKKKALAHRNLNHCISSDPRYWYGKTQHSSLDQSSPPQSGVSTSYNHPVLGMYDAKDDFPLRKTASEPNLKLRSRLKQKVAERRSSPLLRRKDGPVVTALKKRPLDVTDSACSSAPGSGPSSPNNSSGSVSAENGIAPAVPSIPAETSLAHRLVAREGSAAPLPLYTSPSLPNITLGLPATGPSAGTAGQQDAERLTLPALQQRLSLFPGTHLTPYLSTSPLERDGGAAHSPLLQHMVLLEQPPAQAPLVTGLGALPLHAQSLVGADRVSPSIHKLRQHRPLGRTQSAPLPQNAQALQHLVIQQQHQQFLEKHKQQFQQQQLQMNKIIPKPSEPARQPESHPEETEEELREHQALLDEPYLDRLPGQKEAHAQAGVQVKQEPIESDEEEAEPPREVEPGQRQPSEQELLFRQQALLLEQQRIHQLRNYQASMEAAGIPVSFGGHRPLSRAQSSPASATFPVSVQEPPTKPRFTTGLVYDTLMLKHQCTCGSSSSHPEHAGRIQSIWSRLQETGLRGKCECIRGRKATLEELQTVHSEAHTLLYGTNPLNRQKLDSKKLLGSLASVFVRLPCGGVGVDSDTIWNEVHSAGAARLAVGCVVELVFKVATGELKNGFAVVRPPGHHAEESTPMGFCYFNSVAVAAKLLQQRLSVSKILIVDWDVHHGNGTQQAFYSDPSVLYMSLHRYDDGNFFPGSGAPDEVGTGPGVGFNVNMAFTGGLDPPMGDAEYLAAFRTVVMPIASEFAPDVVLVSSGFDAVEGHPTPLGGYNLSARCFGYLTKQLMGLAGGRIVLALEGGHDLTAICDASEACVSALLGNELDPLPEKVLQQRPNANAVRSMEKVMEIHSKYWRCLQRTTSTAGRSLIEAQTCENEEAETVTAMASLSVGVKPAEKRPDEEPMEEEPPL
Text for HDAC4: as §2

Turning to `O=C(O)CCCC[C@H]1CCSS1` [(S)-α-lipoic acid], the IC50 (in general, the concentration that gives 50% inhibition) in the experiment with HDAC2 [1] is > 500 µM; on HDAC8 [2], 559 ± 71 µM; in experiment [3], 906 ± 87.7 µM; with HDAC6 [4], > 500 µM; with T47D (setting [8]), 338 ± 17.4 µM; in the experiment on MCF-7 (setting [9]), 429 ± 26.8 µM. In addition, the IC50 at HDAC6 [5] is 21.3 ± 1.23 µM; at HDAC2 [6], 299 ± 34.6 µM; in the experiment with HDAC8 [7], > 500 µM; at HDAC4 it was 324 ± 39.9 µM.
`O=C(O)CCCC[C@@H]1CCSS1` [(R)-α-lipoic acid]: the IC50 in the experiment on HDAC2 [1] is ~500 µM; at HDAC8 [2] it was 151 ± 33.4 µM; in experiment [3] it was 969 ± 120 µM; with HDAC6 [4], 210 µM; in the experiment on T47D (72 h MTT, slightly above, read-out: IC50 T47D), ~1000 µM; in the experiment with T47D (setting [8]), 435 ± 28.6 µM. Also, the IC50 in the experiment with T47D (read-out: IC50 T-47D, 72 h MTT assay, 72 h, IC50 ± SEM) is 1120 ± 67.8 µM; with MCF-7 (72 h MTT, slightly above, read-out: IC50 MCF-7) it was ~1000 µM; in the experiment with MCF-7 (setting [9]), 439 ± 16.3 µM; with MCF-7 (read-out: IC50 MCF-7, 72 h MTT assay, 72 h, IC50 ± SEM), 1170 ± 28.9 µM; on HDAC6 [5], 14.2 ± 2.62 µM; at HDAC2 [6], 208 ± 34.9 µM. The IC50 was 127 µM in the experiment with HDAC8 [7] and 168 ± 19.3 µM at HDAC4. Besides, in the experiment with T47D (100 µM, 120 h MTT), the “reduction of proliferation at 100 µM, T47D” value is reported as 12%. Also, the “reduction of proliferation at 300 µM, T47D” value with T47D (300 µM, 120 h MTT, more pronounced effect in T47D) is recorded as “significantly reduced proliferation”. Further, the “decrease of cell viability, T47D” value with T47D (1 mM, 72 h MTT) is listed as “approximately 35%”. Also, in the experiment on T47D (120 h versus 72 h MTT), the “increase in potency by prolongation of incubation time, T47D” value was found to be 2.6 fold. Besides, in the experiment with MCF-7 (100 µM, 120 h MTT), the “inhibition of cell proliferation at 100 µM, MCF-7” value is given as “did not inhibit cell proliferation”. Also, the “reduction of proliferation at 300 µM, MCF-7” value in the experiment with MCF-7 (300 µM, 120 h MTT) is “significantly reduced proliferation”. Besides, the “decrease of cell viability, MCF-7” value with MCF-7 (1 mM, 72 h MTT) is “approximately 35%”. In addition, in the experiment on MCF-7 (120 h versus 72 h MTT), the “increase in potency by prolongation of incubation time, MCF-7” value was found to be 2.7 fold.

The values are drawn from article PMC11313180 (International Journal of Molecular Sciences, 2024).
